Measured values as given in PMC6934184, “Selective DNA-PKcs inhibition extends the therapeutic index of localized radiotherapy and chemotherapy” (The Journal of Clinical Investigation, 2019).

Target: T1, EGFR (ErbB1) T790M (Homo sapiens, UniProt P00533, T790M)
T1 construct: purchased Thermo Fisher Scientific (Life Technologies) SelectScreen
Experiment: SelectScreen Z'LYTE
Type: biochemical
In short: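 SelectScreen broad panel; activity (Z'LYTE, Adapta) plus binding formats. ATP: Km app for CSF1R Z'LYTE; 10 for CAMK1 Adapta. Readout = % per kinase.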

T1 sequence (P00533 25-1210 T790M): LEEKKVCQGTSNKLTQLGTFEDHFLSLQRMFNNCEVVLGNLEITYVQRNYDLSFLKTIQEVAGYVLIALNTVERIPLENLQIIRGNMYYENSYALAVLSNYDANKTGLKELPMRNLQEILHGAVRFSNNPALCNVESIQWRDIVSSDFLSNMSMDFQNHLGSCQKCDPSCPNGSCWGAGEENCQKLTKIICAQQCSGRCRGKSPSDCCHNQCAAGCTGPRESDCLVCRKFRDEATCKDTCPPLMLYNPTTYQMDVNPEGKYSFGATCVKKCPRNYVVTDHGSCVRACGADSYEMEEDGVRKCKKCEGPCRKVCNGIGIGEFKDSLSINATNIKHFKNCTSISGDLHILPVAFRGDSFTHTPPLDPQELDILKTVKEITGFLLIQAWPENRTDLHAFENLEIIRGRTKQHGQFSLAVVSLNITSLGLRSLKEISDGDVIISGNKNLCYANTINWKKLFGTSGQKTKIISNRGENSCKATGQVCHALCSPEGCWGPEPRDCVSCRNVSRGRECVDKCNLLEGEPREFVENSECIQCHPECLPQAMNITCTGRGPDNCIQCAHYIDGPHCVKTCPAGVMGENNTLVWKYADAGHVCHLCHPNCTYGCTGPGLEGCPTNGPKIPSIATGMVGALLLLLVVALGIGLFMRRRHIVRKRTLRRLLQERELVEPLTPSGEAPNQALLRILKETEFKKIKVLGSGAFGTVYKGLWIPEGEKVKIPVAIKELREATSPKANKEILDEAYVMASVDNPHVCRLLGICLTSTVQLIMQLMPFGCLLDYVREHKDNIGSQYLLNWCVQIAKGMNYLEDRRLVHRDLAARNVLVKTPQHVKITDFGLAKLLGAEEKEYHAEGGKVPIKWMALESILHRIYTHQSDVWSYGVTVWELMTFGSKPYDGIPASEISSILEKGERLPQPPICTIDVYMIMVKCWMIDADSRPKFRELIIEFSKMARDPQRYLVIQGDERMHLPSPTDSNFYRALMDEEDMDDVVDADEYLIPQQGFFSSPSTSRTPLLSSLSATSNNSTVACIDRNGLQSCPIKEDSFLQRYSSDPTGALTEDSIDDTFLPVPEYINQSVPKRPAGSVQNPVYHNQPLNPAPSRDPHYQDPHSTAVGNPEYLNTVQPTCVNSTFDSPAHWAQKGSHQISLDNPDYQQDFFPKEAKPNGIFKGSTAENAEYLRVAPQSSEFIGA

In the case of `CN(C(=O)CN1CCOCC1)c1ccc2sc3c(-c4cccc5c(=O)cc(N6CC7CCC(C6)O7)oc45)cccc3c2c1` [NU5455], the inhibition at 1 µM is reported as -3.3%.
